Results published in BigSolDB 2.1.

O=C(O)c1cccc(C(=O)O)c1
Settings | solubility (mole fraction)
in ethanol, 294.35 K | 0.004
in ethanol, 296.95 K | 0.0042
in ethanol, 298.15 K | 0.0043
in ethanol, 300.55 K | 0.0047
in ethanol, 306.15 K | 0.0051
in ethanol, 308.85 K | 0.0053
in ethanol, 310.85 K | 0.0056
in ethanol, 313.65 K | 0.0063
in ethanol, 318.35 K | 0.0068
in ethanol, 320.45 K | 0.0072
in ethanol, 324.15 K | 0.0075
in ethanol, 326.75 K | 0.0078
in ethanol, 330.85 K | 0.0085
in ethanol, 331.75 K | 0.0089
in ethanol, 335.05 K | 0.0093
in isobutanol, 318.65 K | 0.0025
in isobutanol, 323.55 K | 0.0033
in isobutanol, 327.85 K | 0.004
in isobutanol, 331.05 K | 0.0047
in isobutanol, 336.15 K | 0.0055
in isobutanol, 340.05 K | 0.0061
in isobutanol, 343.05 K | 0.0066
in isobutanol, 346.65 K | 0.0072
in isobutanol, 348.95 K | 0.0079
in isobutanol, 351.05 K | 0.0085
in isobutanol, 355.05 K | 0.0092
in isobutanol, 356.05 K | 0.0098
in isobutanol, 360.75 K | 0.0108
in isopropanol, 304.65 K | 0.0046
in isopropanol, 308.45 K | 0.0052
in isopropanol, 310.95 K | 0.0057
in isopropanol, 316.45 K | 0.0063
in isopropanol, 319.45 K | 0.0068
in isopropanol, 322.15 K | 0.0075
in isopropanol, 324.85 K | 0.0081
in isopropanol, 326.95 K | 0.0086
in isopropanol, 331.35 K | 0.0095
in isopropanol, 334.35 K | 0.0103
in isopropanol, 337.55 K | 0.0111
in isopropanol, 342.25 K | 0.012
in isopropanol, 344.25 K | 0.0126
in methanol, 288.35 K | 0.0029
in methanol, 292.45 K | 0.0031
in methanol, 295.65 K | 0.0032
in methanol, 298.65 K | 0.0035
in methanol, 299.65 K | 0.0036
in methanol, 302.15 K | 0.004
in methanol, 305.25 K | 0.0044
in methanol, 308.45 K | 0.0047
in methanol, 311.85 K | 0.0049
in methanol, 313.45 K | 0.0051
in methanol, 316.65 K | 0.0056
in methanol, 319.25 K | 0.0056
in methanol, 320.15 K | 0.006
in methanol, 323.15 K | 0.0064
in methanol, 326.05 K | 0.0068
in methanol, 328.15 K | 0.0072
in n-butanol, 309.65 K | 0.0039
in n-butanol, 314.35 K | 0.0044
in n-butanol, 319.95 K | 0.0052
in n-butanol, 324.45 K | 0.0057
in n-butanol, 328.05 K | 0.0062
in n-butanol, 332.15 K | 0.007
in n-butanol, 335.25 K | 0.0076
in n-butanol, 338.05 K | 0.0081
in n-butanol, 340.95 K | 0.0091
in n-butanol, 345.45 K | 0.0099
in n-butanol, 347.95 K | 0.0104
in n-propanol, 303.75 K | 0.0033
in n-propanol, 305.65 K | 0.0039
in n-propanol, 311.65 K | 0.0043
in n-propanol, 315.35 K | 0.0049
in n-propanol, 318.85 K | 0.0054
in n-propanol, 322.55 K | 0.0059
in n-propanol, 326.65 K | 0.0064
in n-propanol, 330.45 K | 0.007
in n-propanol, 337.95 K | 0.0091
in n-propanol, 340.15 K | 0.0093
in n-propanol, 341.95 K | 0.01
in n-propanol, 345.95 K | 0.0113
in n-propanol, 348.15 K | 0.0122
in sec-butanol, 302.45 K | 0.0025
in sec-butanol, 306.35 K | 0.0033
in sec-butanol, 309.25 K | 0.004
in sec-butanol, 314.15 K | 0.0049
in sec-butanol, 317.65 K | 0.0057
in sec-butanol, 322.15 K | 0.0071
in sec-butanol, 326.25 K | 0.0085
in sec-butanol, 331.35 K | 0.0098
in sec-butanol, 339.35 K | 0.0117
in sec-butanol, 342.35 K | 0.0126
in tert-butanol, 303.65 K | 0.0026
in tert-butanol, 307.95 K | 0.0038
in tert-butanol, 312.15 K | 0.0047
in tert-butanol, 315.35 K | 0.0059
in tert-butanol, 318.35 K | 0.0073
in tert-butanol, 321.15 K | 0.0091
in tert-butanol, 324.55 K | 0.0106
in tert-butanol, 328.75 K | 0.0125
in tert-butanol, 331.65 K | 0.0141
in tert-butanol, 334.95 K | 0.016
in tert-butanol, 338.45 K | 0.0177
in tert-butanol, 342.65 K | 0.0194
in tert-butanol, 345.65 K | 0.0203
